In brackets after ≈: the same amount, converted by molar mass. Read-outs that look alike come from different tables or passages of the source.
Key:
[1] = test system: HEK293 cells; test: MTT cytotoxicity assay, HEK293; assay type: cell-based; conditions: Homo sapiens
Protocol: (§1) Cytotoxicity was evaluated using the MTT (3-(4,5-dimethylthiazol-2-yl)-2,5-diphenyltetrazolium bromide) assay to measure cell viability after treatment with the plant extracts. This assay measures the percentage viability of a cell population by monitoring the ability of the NAD(P)H-dependent oxidoreductase enzyme system in live cells to reduce MTT to formazan, an insoluble purple form of the dye. […] The medium was replaced with fresh medium, and the extracts were added in varying concentrations (50–250 µg/mL). The plates were incubated at 37 °C in 5% CO2 for 48 h. At the end of the incubation period, the spent medium was discarded and replaced with 100 µL fresh medium containing 10 µL (5 mg/mL in PBS) MTT reagent. The cells were then incubated for an additional 4 h. The MTT/medium was subsequently removed, and 100 μL DMSO was added to solubilize the formazan dye product. Absorbance at 570 nm was assessed using a microplate reader (Vacutec, Hamburg, Germany). Cell viability was calculated as in Equation (2).(2) Cell viability (%)=At/Ac×100 where At = absorbance of test or treated cells and Ac = absorbance of control or untreated cells.

[2] = test system: MCF-7 cells; test: MTT cytotoxicity assay, MCF-7; assay type: cell-based, human; conditions: for IC50: Homo sapiens
Protocol: as §1

[3] = test system: HeLa cells; test: MTT cytotoxicity assay, HeLa; assay type: cell-based, human; conditions: for IC50: Homo sapiens, HeLa
Protocol: as §1

[4] = DPPH radical scavenging assay; assay type: biochemical; conditions: crude extracts/ascorbic acid 50-250 µg/mL, 30 min, 517 nm
Protocol: The antioxidant potential of the crude extracts was evaluated by measuring their DPPH radical scavenging activity following the protocol described by Bukhari et al.. […] A control well containing 5% dimethyl sulfoxide (DMSO) and DPPH was run concurrently. The samples were incubated in the dark for 30 min at room temperature. The absorbance was read against a DMSO blank at a wavelength of 517 nm using a microplate reader.

[5] = test system: MCF-7 cells; test: AO/EB dual staining for apoptosis, MCF-7; assay type: cell-based, human; conditions: 48 h; 250 µg/mL (method) or 100 µg/mL (Figure 3 legend)
Protocol: A qualitative assessment of apoptosis induction in cancer cells was conducted by the acridine orange-ethidium bromide (AO/EB) dual staining method, as described previously [13, 14]. Confluent cells (4.0 × 10^3 cells/well) were trypsinized and seeded into 48-well plates and incubated for 24 h at 37 °C in 5% CO2. Subsequently, the spent medium was replaced, and cells were incubated for a further 48 h with the extracts or standard drug (5-fluorouracil) at a concentration of 250 µg/mL. The cells were rinsed twice with cold PBS, and 15 µL of the AO/EB dye mixture (0.1 mg/mL: 0.1 mg/mL) was added, and the cells were incubated for 5 min at ambient temperature. The cells were washed with PBS to remove excess dye and then visualized under an Olympus fluorescence microscope (Wirsam Scientific and Precision Equipment Ltd., Johannesburg, South Africa). Images were captured using a CC12 fluorescence camera and Analysis Five Software (Olympus Soft Imaging Solutions, Olympus, Tokyo, Japan) at 200× magnification.

[6] = test system: MCF-7 cells; test: Muse MultiCaspase assay, MCF-7; assay type: cell-based, human; conditions: 100 µg/mL, 48 h, Figure 5b
Protocol: (§2) The multicaspase assay was performed using the Muse MultiCaspase kit, which can detect the presence of multiple caspases (caspase-1, 3, 4, 5, 6, 7, 8, and 9). The kit utilizes a derivatized VAD peptide that can detect the activity of multiple caspases and a dead cell dye that provides information on membrane integrity or cell death. Cells were seeded into 48-well plates at a density of 1.0 × 10^5 cells/well and allowed to attach over 24 h. Subsequently, 100 µg/mL of the isolated fractions were added, and the cells were incubated for 48 h. The cells were then trypsinized and reconstituted in 1 × caspase buffer. Approximately 5 μL of the Muse™ MultiCaspase working solution was added to 50 μL of cell suspension and incubated at 37 °C for 30 min. Thereafter, 150 μL of 7-AAD working solution was added, mixed thoroughly, and analyzed using the Muse™ cell analyzer (Luminex Corporation, Austin, TX, USA).

[7] = test system: HeLa cells; test: Muse MultiCaspase assay, HeLa; assay type: cell-based, human; conditions: 100 µg/mL, 48 h, Figure 5a
Protocol: as §2

[8] = HEK293, isolated compounds/fractions, read-out: IC50 HEK293 (isolated compounds)
[9] = MCF7, MTT, isolated compounds/fractions, read-out: IC50 MCF-7 (isolated compounds)
[10] = isolated compounds/fractions, read-out: IC50 HeLa (isolated compounds)
[11] = MTT, isolated compounds/fractions

SMILES	IC50 [1, 8] [µg/mL]	IC50 [2, 9] [µg/mL]	IC50 [3, 10] [µg/mL]	caspase activation in MCF-7 cells [6]	caspase activation in HeLa cells [7]	IC50 MCF-7 (isolated compounds) [2, 11] [µg/mL]	other results
CCCCCCCCCCCCCCCCCCCCCO [1-Heneicosanol, 1-heneicosanol]	372 (≈ 1190 µM)	1980 (≈ 6330 µM)	4010 (≈ 12800 µM)				
O=C1O[C@H]([C@@H](O)CO)C(O)=C1O [Ascorbic acid, ascorbic acid]							IC50 DPPH radical scavenging [4]: 84.37 µg/mL (≈ 479 µM)
O=c1[nH]cc(F)c(=O)[nH]1 [Compound 5-FU, 5-Fluorouracil, reference compound]							AO/EB fluorescence / apoptosis in MCF-7 cells [5]: red fluorescence; IC50 ([1]; 48 h, HEK293 served as normal cells, read-out: IC50 HEK293 (crude extracts)): 54.5 µg/mL (≈ 419 µM); IC50 ([2]; MCF7, 48 h, MTT, 48 h, read-out: IC50 MCF-7 (crude extracts)): 148 µg/mL (≈ 1140 µM); IC50 ([3]; 48 h, read-out: IC50 HeLa (crude extracts)): 510 µg/mL (≈ 3920 µM)
CCCCCCCCCCCCCCOC(=O)/C=C/c1ccc(OC)c(O)c1 [Tetradecyl isoferulate, tetradecyl isoferulate]	141 (≈ 360 µM)	124 (≈ 317 µM)	170 (≈ 435 µM)	pronounced caspase activation potential	pronounced caspase activation potential	123.6174 (≈ 317 µM)	
CCCCCCCCCCCCCCCCCCCCCCCCCCOC(=O)/C=C/c1ccc(OC)c(O)c1 [n-Hexacosanyl isoferulate]	316 (≈ 566 µM)	58.8 (≈ 105 µM)	147 (≈ 262 µM)	pronounced caspase activation potential	pronounced caspase activation potential	58.84 (≈ 105 µM)	IC50 MCF-7 (isolated compounds) ([2]; MTT, isolated compounds/fractions, listed as n-hexacosanyl isoferulate): 58.8 µg/mL (≈ 105 µM); IC50 HeLa (isolated compounds) ([3]; isolated compounds/fractions): 146.63 µg/mL (≈ 262 µM)

Reference: PMC12466456, “Isolation, Characterization, Antioxidant and Anticancer Activities of Compounds from Erythrina caffra Stem Bark Extract” (Antioxidants, 2025)
